Laboratory results: US8435990B2, “Dihydropyrimidone amides as P2X7 modulators” (Roche Palo Alto LLC, priority 2009, dated 2013)

Biological target: T1, human P2X7 (Homo sapiens, UniProt Q99572)
T1 construct: 1321N1 cells stably expressing the full length human P2X7 gene (1321N1-hP2X7)
T1 sequence (Q99572 1-595): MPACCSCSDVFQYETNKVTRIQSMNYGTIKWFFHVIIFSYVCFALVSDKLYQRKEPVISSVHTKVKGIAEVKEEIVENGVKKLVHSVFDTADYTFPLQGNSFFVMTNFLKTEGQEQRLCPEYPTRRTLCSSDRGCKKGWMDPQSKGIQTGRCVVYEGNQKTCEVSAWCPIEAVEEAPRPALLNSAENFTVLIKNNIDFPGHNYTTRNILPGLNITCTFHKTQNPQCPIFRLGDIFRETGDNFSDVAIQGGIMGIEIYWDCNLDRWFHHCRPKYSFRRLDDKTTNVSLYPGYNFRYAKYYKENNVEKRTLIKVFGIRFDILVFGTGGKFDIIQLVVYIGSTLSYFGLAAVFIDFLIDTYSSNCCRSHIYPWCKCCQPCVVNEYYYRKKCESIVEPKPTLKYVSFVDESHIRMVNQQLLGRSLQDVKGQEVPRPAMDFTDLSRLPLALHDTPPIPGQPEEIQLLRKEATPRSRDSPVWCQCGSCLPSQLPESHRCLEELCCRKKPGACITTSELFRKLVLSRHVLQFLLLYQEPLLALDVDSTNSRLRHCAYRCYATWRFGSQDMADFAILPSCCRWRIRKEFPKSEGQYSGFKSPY
Experiment: P2X7 modulator pIC50 of Table 1 (assay not given; Intracellular Calcium Flux (FLIPR) Assay assumed)
Type: cell-based
Experimental: Intracellular Calcium Flux (FLIPR) Assay
Stock solutions of compounds were prepared from powders as a 10 mM DMSO stock solution. These solutions were stored at RT during the two week period of these experiments to prevent freeze-thaw of the DMSO stocks. The DMSO stocks were added to the appropriate assay buffer at a concentration of 10 μM, and then diluted serially to the final concentrations that were tested. No observable precipitate was formed at any time during this process. The aqueous solutions of compounds as well as ATP (Sigma A7699) and BzATP (Sigma B6396) were prepared fresh for each day of experiment.
1321N1 cells stably expressing the full length human P2X7 gene (1321N1-hP2X7) and HEK293 cells stably expressing the full length rat P2X7 gene (HEK293-rP2X7) were obtained from the Roche Cell Culture Facility. 1321N1-hP2X7 cells were grown in Dulbecco's Modified Eagle's Medium (DMEM) high glucose supplemented with 10% FBS and 250 μg/mL G418. HEK293-rP2X7 cells were grown in DMEM/F-12 supplemented with 10% FBS, 1 mM CaCl2, 2 mM MgCl2, 2 mM L-Glutamine and 500 μg/ml G418. Cells were split such that they never became >70% confluent.
On the day prior to the experiment, 1321N1-hP2X7 or HEK293-rP2X7 cells were released into suspension with calcium-free PBS+Versene and washed by centrifugation with calcium-free PBS to remove the Versene. Cells were resuspended in growth medium at a density of 2.5×10^5 cells/mL and seeded into black walled, clear bottom 96 well plates (50,000 cells/well) approximately 18 hr prior to intracellular calcium flux experiments.
On the day of the experiment, plates were washed with FLIPR buffer (calcium- and magnesium-free Hank's Balanced Salt Solution (HBSS) supplemented with 10 mM Hepes, 2.5 mM probenecid and 2 mM calcium chloride) using a BIO-TEK 96 channel plate washer and incubated with […] fluo-3 dye at 37° C. for one hr. The dye was then removed by plate washing and the cells were allowed to equilibrate for 20 min at room temperature with antagonist or vehicle (FLIPR buffer). Agonist (100 μM BzATP final concentration for hP2X7; 5μM BzATP final concentration or rP2X7) was added online with the FLIPR and fluorescence measurements made at 1 sec intervals for 60 sec followed by 3 sec intervals for a further 4 min (5 min total). A final addition of 5 μM ionomycin was made and the maximal BzATP-evoked fluorescence normalized to the maximal ionomycin-evoked fluorescence.

IC50 [nM] | SMILES
34.7 | COc1cc(C)c(NC(=O)C2=CNC(=O)NC2c2ccc(F)cc2)cc1OC (centres unmarked) [Compound 1, 4-(4-Fluoro-phenyl)-2-oxo-1,2,3,4-tetrahydro-pyrimidine-5-carboxylic acid (4,5-dimethoxy-2-methyl-phenyl)-amide]
41.2 | COc1cc(C)c(NC(=O)C2=CN(C)C(=O)NC2c2ccc(F)cc2)cc1OC (centres unmarked) [Compound 2, 4-(4-Fluoro-phenyl)-1-methyl-2-oxo-1,2,3,4-tetrahydro-pyrimidine-5-carboxylic acid (4,5-dimethoxy-2-methyl-phenyl)-amide]
59.8 | COc1cc(C)c(NC(=O)C2=CNC(=O)N[C@H]2c2ccc(F)cc2)cc1OC [Compound 4, (S)-4-(4-Fluoro-phenyl)-2-oxo-1,2,3,4-tetrahydro-pyrimidine-5-carboxylic acid (4,5-dimethoxy-2-methyl-phenyl)-amide]
35.1 | COc1cc(C)c(NC(=O)C2=CN(C)C(=O)N[C@H]2c2ccc(F)cc2)cc1OC [Compound 6, (S)-4-(4-Fluoro-phenyl)-1-methyl-2-oxo-1,2,3,4-tetrahydro-pyrimidine-5-carboxylic acid (4,5-dimethoxy-2-methyl-phenyl)-amide]
359 | COc1cc(C)c(NC(=O)C2=CNC(=O)N[C@@H]2c2ccc(F)cc2)cc1OC [Compound 10, (R)-4-(4-Fluoro-phenyl)-2-oxo-1,2,3,4-tetrahydro-pyrimidine-5-carboxylic acid (4,5-dimethoxy-2-methyl-phenyl)-amide]
111 | COc1cc(C)c(NC(=O)C2=CN(CCO)C(=O)NC2c2ccc(F)cc2)cc1OC (centres unmarked) [Compound 12, 4-(4-Fluoro-phenyl)-1-(2-hydroxy-ethyl)-2-oxo-1,2,3,4-tetrahydro-pyrimidine-5-carboxylic acid (4,5-dimethoxy-2-methyl-phenyl)-amide]
85.1 | COc1cc(C)c(NC(=O)C2=CNC(=O)N(C)C2c2ccc(F)cc2)cc1OC (centres unmarked) [Compound 13, 4-(4-Fluoro-phenyl)-3-methyl-2-oxo-1,2,3,4-tetrahydro-pyrimidine-5-carboxylic acid (4,5-dimethoxy-2-methyl-phenyl)-amide]

The next lines start with the molecule.

SMILES | IC50 [nM]
Cc1cc(-c2ccc(C)c(NC(=O)C3=CNC(=O)N[C@@H]3c3ccc(F)cc3)c2)n[nH]1 [Compound 3, (R)-4-(4-Fluoro-phenyl)-2-oxo-1,2,3,4-tetrahydro-pyrimidine-5-carboxylic acid [2-methyl-5-(5-methyl-1H-pyrazol-3-yl)-phenyl]-amide] | 173
Cc1cc(-c2ccc(C)c(NC(=O)C3=CNC(=O)N[C@H]3c3ccc(F)cc3)c2)n[nH]1 [Compound 5, (S)-4-(4-Fluoro-phenyl)-2-oxo-1,2,3,4-tetrahydro-pyrimidine-5-carboxylic acid [2-methyl-5-(5-methyl-1H-pyrazol-3-yl)-phenyl]-amide] | 19.7
Cc1cc(-c2ccc(C)c(NC(=O)C3=CN(C)C(=O)N[C@H]3c3ccc(F)cc3)c2)n[nH]1 [Compound 7, (S)-4-(4-Fluoro-phenyl)-1-methyl-2-oxo-1,2,3,4-tetrahydro-pyrimidine-5-carboxylic acid [2-methyl-5-(5-methyl-1H-pyrazol-3-yl)-phenyl]-amide] | 35.1
Cc1cc(Cl)c(OCCO)cc1NC(=O)C1=CN(C)C(=O)N[C@H]1c1ccc(F)cc1 [Compound 8, (S)-4-(4-Fluoro-phenyl)-1-methyl-2-oxo-1,2,3,4-tetrahydro-pyrimidine-5-carboxylic acid [4-chloro-5-(2-hydroxy-ethoxy)-2-methyl-phenyl]-amide] | 22.9
COc1cc(C)c(NC(=O)C2=CN(C)C(=O)N(C)C2c2ccc(F)cc2)cc1OC (centres unmarked) [Compound 9, 4-(4-Fluoro-phenyl)-1,3-dimethyl-2-oxo-1,2,3,4-tetrahydro-pyrimidine-5-carboxylic acid (4,5-dimethoxy-2-methyl-phenyl)-amide] | 196
Cc1ccc2ncccc2c1NC(=O)C1=CN(C)C(=O)N[C@H]1c1ccc(F)cc1 [Compound 11, (S)-4-(4-Fluoro-phenyl)-1-methyl-2-oxo-1,2,3,4-tetrahydro-pyrimidine-5-carboxylic acid (6-methyl-quinolin-5-yl)-amide] | 120
Cc1cc(-c2ccc(C)c(NC(=O)C3=CN(C)C(=O)NC3c3cccc(F)c3)c2)n[nH]1 (centres unmarked) [Compound 14, 4-(3-Fluoro-phenyl)-1-methyl-2-oxo-1,2,3,4-tetrahydro-pyrimidine-5-carboxylic acid [2-methyl-5-(5-methyl-1H-pyrazol-3-yl)-phenyl]-amide] | 57.9
Cc1cnn(-c2ccc(C)c(NC(=O)C3=CN(C)C(=O)N[C@H]3c3ccc(F)cc3)c2)c1 [Compound 15, (S)-4-(4-Fluoro-phenyl)-1-methyl-2-oxo-1,2,3,4-tetrahydro-pyrimidine-5-carboxylic acid [2-methyl-5-(4-methyl-pyrazol-1-yl)-phenyl]-amide] | 14.1
Cc1cc(F)c(OCCO)cc1NC(=O)C1=CN(C)C(=O)N[C@H]1c1ccc(F)cc1 [Compound 16, (S)-4-(4-Fluoro-phenyl)-1-methyl-2-oxo-1,2,3,4-tetrahydro-pyrimidine-5-carboxylic acid [4-fluoro-5-(2-hydroxy-ethoxy)-2-methyl-phenyl]-amide] | 9.23
CCN1C=C(C(=O)Nc2cc(OCCO)c(Cl)cc2C)[C@H](c2ccc(F)cc2)NC1=O [Compound 17, (S)-1-Ethyl-4-(4-fluoro-phenyl)-2-oxo-1,2,3,4-tetrahydro-pyrimidine-5-carboxylic acid [4-chloro-5-(2-hydroxy-ethoxy)-2-methyl-phenyl]-amide] | 24
Cc1ccc(-c2nnc(C)n2C)cc1NC(=O)C1=CN(C)C(=O)N[C@H]1c1ccc(F)cc1 [Compound 18, (S)-4-(4-Fluoro-phenyl)-1-methyl-2-oxo-1,2,3,4-tetrahydro-pyrimidine-5-carboxylic acid [5-(4,5-dimethyl-4H-[1,2,4]triazol-3-yl)-2-methyl-phenyl]-amide] | 22.1
Cc1ccc(-c2cc(C)n(C[C@@H](O)CO)n2)cc1NC(=O)C1=CN(C)C(=O)N[C@H]1c1ccc(F)cc1 [Compound 19, (S)-4-(4-Fluoro-phenyl)-1-methyl-2-oxo-1,2,3,4-tetrahydropyrimidine-5-carboxylic acid {5-[1-((R)-2,3-dihydroxy-propyl)-5-methyl-1H-pyrazol-3-yl]-2-methyl-phenyl}-amide] | 22.9
Cc1ccc2c(NC(=O)C3=CN(C)C(=O)N[C@H]3c3ccc(F)cc3)c(C)ccc2n1 [Compound 21, (S)-4-(4-Fluoro-phenyl)-1-methyl-2-oxo-1,2,3,4-tetrahydro-pyrimidine-5-carboxylic acid (2,6-dimethyl-quinolin-5-yl)-amide] | 88.1
Cc1ccc(-c2ccnn(C)c2=O)cc1NC(=O)C1=CN(C)C(=O)N[C@H]1c1ccc(F)cc1 [Compound 22, (S)-4-(4-Fluoro-phenyl)-1-methyl-2-oxo-1,2,3,4-tetrahydro-pyrimidine-5-carboxylic acid [2-methyl-5-(2-methyl-3-oxo-2,3-dihydro-pyridazin-4-yl)-phenyl]-amide] | 11.5
Cc1c(NC(=O)C2=CN(C)C(=O)N[C@H]2c2ccc(F)cc2)cccc1-c1ccn[nH]1 [Compound 23, (S)-4-(4-Fluoro-phenyl)-1-methyl-2-oxo-1,2,3,4-tetrahydro-pyrimidine-5-carboxylic acid [2-methyl-3-(2H-pyrazol-3-yl)-phenyl]-amide] | 184
COC[C@H](O)Cn1nc(-c2ccc(C)c(NC(=O)C3=CN(C)C(=O)N[C@H]3c3ccc(F)cc3)c2)cc1C [Compound 24, (S)-4-(4-Fluoro-phenyl)-1-methyl-2-oxo-1,2,3,4-tetrahydro-pyrimidine-5-carboxylic acid {5-[1-((R)-2-hydroxy-3-methoxy-propyl)-5-methyl-1H-pyrazol-3-yl]-2-methyl-phenyl}-amide] | 50.7
